# Legend:
# SF-268 = assay: Cytotoxicity against human SF-268 cells assessed as reduction in cell viability after 72 hrs by SRB assay; format: functional, cell-based; details: SF-268, 72 h
# MCF7 = assay: Cytotoxicity against human MCF7 cells assessed as reduction in cell viability after 72 hrs by SRB assay; format: functional, cell-based; details: MCF7, 72 h
# HepG2 = assay: Cytotoxicity against human HepG2 cells assessed as reduction in cell viability after 72 hrs by SRB assay; format: functional, cell-based; details: HepG2, 72 h
# Staphylococcus aureus [1] = assay: Antibacterial activity against Staphylococcus aureus ATCC 29213 assessed as reduction in bacterial growth after 16 hrs by broth microdilution method; format: functional
# Bacillus thuringiensis = assay: Antibacterial activity against Bacillus thuringiensis SCSIO BT01 assessed as reduction in bacterial growth after 16 hrs by broth microdilution method; format: functional
# Micrococcus luteus = assay: Antibacterial activity against Micrococcus luteus SCSIO ML01 assessed as reduction in bacterial growth after 16 hrs by broth microdilution method; format: functional
# Bacillus subtilis = assay: Antibacterial activity against […] 1064 assessed as reduction in bacterial growth after 16 hrs by broth microdilution method; format: functional
# Staphylococcus aureus [2] = assay: Antibacterial activity against methicillin-resistant Staphylococcus aureus shhs-A1 assessed as reduction in bacterial growth after 16 hrs by broth microdilution method; format: functional
Structure (SMILES),IC50 (SF-268) [µM],IC50 (MCF7) [µM],IC50 (HepG2) [µM],MIC (Staphylococcus aureus [1]) [µg/mL],MIC (Bacillus thuringiensis) [µg/mL],MIC (Micrococcus luteus) [µg/mL],MIC (Bacillus subtilis) [µg/mL],MIC (Staphylococcus aureus [2]) [µg/mL]
CC[C@]1(O)CC(=O)c2c(cc(O)c3c2C(=O)c2cccc(O)c2C3=O)C1,9,12.5,10.3,> 64,> 64,> 64,> 64,> 64
CCc1cc(O)c2c3c(ncc2c1)C(=O)c1c(O)cccc1C3=O,5.4,6.8,1.4,2,4,4,4,2
CCc1cc(O)c2c(c1C(C)=O)C(=O)c1cccc(O)c1C2=O,7.6,10.4,8.1,> 64,> 64,> 64,> 64,> 64
Cc1cn([C@H]2C[C@H](O)[C@@H](COP(=O)(O)O)O2)c(=O)[nH]c1=O [THYMIDINE MONOPHOSPHATE],,,,2,0.5,0.5,0.5,2
CCc1cc(O)c2c(c1)C(N)=C1C(=O)c3c(O)cccc3C(=O)C12CC(C)=O (racemic),> 100,> 100,> 100,> 64,> 64,> 64,> 64,> 64
CCc1cc(O)c2c3c(c(O)cc2c1)C(=O)c1c(O)cccc1C3=O,16.9,14.9,25.3,4,> 64,8,> 64,> 64
CC[C@]12CC(=O)[C@@]3(O)[C@](O)(CC(O)=C4C(=O)c5c(O)cccc5C(=O)[C@@]43S1)C2,> 100,> 100,> 100,> 64,> 64,> 64,> 64,> 64
CCc1cc(O)c2c3c([nH]c(=O)c2c1)C(=O)c1c(O)cccc1C3=O,18,52,4,64,> 64,> 64,> 64,64
CCc1cc(C(=O)O)c2c3c(oc2c1)C(=O)c1c(O)cccc1C3=O,> 100,> 100,> 100,> 64,> 64,> 64,> 64,> 64
CCc1cc(O)c(C2=C(O)C(=O)c3c(O)cccc3C2=O)c(C(=O)OC)c1,> 100,> 100,> 100,> 64,> 64,> 64,> 64,> 64
CCc1cc(O)c2c(c1)C(SC[C@H](NC(C)=O)C(=O)O)=C1C(=O)c3c(O)cccc3C(O)=C12,> 100,> 100,> 100,> 64,> 64,> 64,> 64,> 64

# Reference: ChEMBL document CHEMBL4699516, “S-Bridged Thioether and Structure-Diversified Angucyclinone Derivatives from the South China Sea-Derived Micromonospora echinospora SCSIO 04089” (J Nat Prod, 2020)
